Laboratory results from ChEMBL document CHEMBL4145553, “Design, synthesis, and biological evaluation of novel amide and hydrazide based thioether analogs targeting Histone deacteylase (HDAC) enzymes” (Eur J Med Chem, 2018).

What was measured:
HL-60 = assay: Antiproliferative activity against human HL60 cells after 24 hrs by MTT assay; format: functional
MDA-MB-435 = assay: Antiproliferative activity against human MDA-MB-435 cells after 24 hrs by MTT assay; format: functional

GI50 (HL-60): 590 nM
GI50 (MDA-MB-435): 1780 nM
Structure (SMILES): CC(/C=C/C(=O)NO)=C\[C@@H](C)C(=O)c1ccc(N(C)C)cc1 [TRICHOSTATIN]
